Measured values as given in PubChem BioAssay (NCI).
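48-hour exposure; five concentrations; linearly interpolated endpoints. At the GI50, growth is halved. The concentration for full growth arrest is given as TGI.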

Key:
Experiment in all cases: growth of human tumour cells (NCI), 48 h
[1] = tested on: 786-0 renal
[2] = tested on: A498 renal
[3] = tested on: A549 NSCLC
[4] = tested on: ACHN renal
[5] = tested on: BT-549 breast
[6] = tested on: CAKI-1 renal
[7] = tested on: CCRF-CEM leukemia
[8] = tested on: COLO 205 colon
[9] = tested on: DU-145 prostate
[10] = tested on: EKVX NSCLC
[11] = tested on: HCC-2998 colon
[12] = tested on: HCT-116 colon
[13] = tested on: HCT-15 colon
[14] = tested on: HL-60(TB) leukemia
[15] = tested on: HOP-62 NSCLC
[16] = tested on: HOP-92 NSCLC
[17] = tested on: HS 578T breast
[18] = tested on: HT29 colon
[19] = tested on: IGROV1 ovarian
[20] = tested on: K-562 leukemia
[21] = tested on: KM12 colon
[22] = tested on: LOX IMVI melanoma
[23] = tested on: M14 melanoma
[24] = tested on: MALME-3M melanoma
[25] = tested on: MCF7 breast
[26] = tested on: MDA-MB-231 breast
[27] = tested on: MDA-MB-435
[28] = tested on: MDA-MB-468 breast
[29] = tested on: MOLT-4 leukemia
[30] = tested on: NCI-H226 lung
[31] = tested on: NCI-H23 lung
[32] = tested on: NCI-H460 lung
[33] = tested on: NCI-H522 lung
[34] = tested on: NCI/ADR-RES ovarian
[35] = tested on: OVCAR-3 ovarian
[36] = tested on: OVCAR-4 ovarian
[37] = tested on: OVCAR-5 ovarian
[38] = tested on: OVCAR-8 ovarian
[39] = tested on: PC-3 prostate
[40] = tested on: RPMI-8226 leukemia
[41] = tested on: RXF 393 renal
[42] = tested on: SF-268 CNS
[43] = tested on: SF-295 CNS
[44] = tested on: SF-539 CNS
[45] = tested on: SK-MEL-2 melanoma
[46] = tested on: SK-MEL-28 melanoma
[47] = tested on: SK-MEL-5 melanoma
[48] = tested on: SK-OV-3 ovarian
[49] = tested on: SN12C renal
[50] = tested on: SNB-19 CNS
[51] = tested on: SNB-75 CNS
[52] = tested on: SR leukemia
[53] = tested on: SW-620 colon
[54] = tested on: T-47D breast
[55] = tested on: TK-10 renal
[56] = tested on: U251 CNS
[57] = tested on: UACC-257 melanoma
[58] = tested on: UACC-62 melanoma
[59] = tested on: UO-31 renal

C/C(=N\N=C1/C(=O)Nc2ccc(Cl)cc21)c1ccc2c(c1)Nc1ccccc1S2
GI50 [1]: 2400 nM
TGI [1]: 5.86 µM
GI50 [2]: 5.89 µM
TGI [2]: 18.7 µM
GI50 [3]: 4.21 µM
TGI [3]: 17.8 µM
GI50 [4]: 3.55 µM
TGI [4]: 14.1 µM
GI50 [5]: 3.47 µM
TGI [5]: 12.3 µM
GI50 [6]: 4.42 µM
TGI [6]: 17.9 µM
GI50 [7]: 3.42 µM
TGI [7]: 98.5 µM
GI50 [8]: 4.84 µM
TGI [8]: 17.2 µM
GI50 [9]: 4.64 µM
TGI [9]: 18 µM
GI50 [10]: 4.68 µM
TGI [10]: 22.9 µM
GI50 [11]: 7.54 µM
TGI [11]: 22.5 µM
GI50 [12]: 4.6 µM
TGI [12]: 19 µM
GI50 [13]: 6.61 µM
TGI [13]: 24 µM
GI50 [14]: 6.21 µM
TGI [14]: > 100 µM
GI50 [15]: 12.5 µM
TGI [15]: 27.8 µM
GI50 [16]: 2920 nM
TGI [16]: 11.3 µM
GI50 [17]: 6.86 µM
TGI [17]: 41.1 µM
GI50 [18]: 4.54 µM
TGI [18]: 17.6 µM
GI50 [19]: 5.62 µM
TGI [19]: 23.1 µM
GI50 [20]: 4.14 µM
TGI [20]: > 100 µM
GI50 [21]: 3.51 µM
TGI [21]: 14.1 µM
GI50 [22]: 5.77 µM
TGI [22]: 18.7 µM
GI50 [23]: 7.35 µM
TGI [23]: 23.3 µM
GI50 [24]: 7.44 µM
TGI [24]: 21.5 µM
GI50 [25]: 3.33 µM
TGI [25]: 13.5 µM
GI50 [26]: 8.23 µM
TGI [26]: 21.9 µM
GI50 [27]: 3.27 µM
TGI [27]: 15.5 µM
GI50 [28]: 1800 nM
TGI [28]: 7.31 µM
GI50 [29]: 2710 nM
TGI [29]: 8.28 µM
GI50 [30]: 3.49 µM
TGI [30]: 19.7 µM
GI50 [31]: 7.3 µM
TGI [31]: 21.7 µM
GI50 [32]: 3.17 µM
TGI [32]: 10.3 µM
GI50 [33]: 3.22 µM
TGI [33]: 15.3 µM
GI50 [34]: 4.74 µM
TGI [34]: 24.6 µM
GI50 [35]: 10.2 µM
TGI [35]: 23.4 µM
GI50 [36]: 4.67 µM
TGI [36]: 22.5 µM
GI50 [37]: 10.1 µM
TGI [37]: 26.2 µM
GI50 [38]: 4.2 µM
TGI [38]: 17.9 µM
GI50 [39]: 3.14 µM
TGI [39]: 16.3 µM
GI50 [40]: 5.86 µM
TGI [40]: 99.6 µM
GI50 [41]: 5.05 µM
TGI [41]: 19 µM
GI50 [42]: 8.19 µM
TGI [42]: 26.5 µM
GI50 [43]: 4.08 µM
TGI [43]: 17 µM
GI50 [44]: 6.83 µM
TGI [44]: 19.8 µM
GI50 [45]: 6.77 µM
TGI [45]: 20.8 µM
GI50 [46]: 6.23 µM
TGI [46]: 22.8 µM
GI50 [47]: 3.8 µM
TGI [47]: 14.4 µM
GI50 [48]: 11.9 µM
TGI [48]: 30.7 µM
GI50 [49]: 4.47 µM
TGI [49]: 16.8 µM
GI50 [50]: 11.9 µM
TGI [50]: 33.1 µM
GI50 [51]: 4.28 µM
TGI [51]: 19.4 µM
GI50 [52]: 4.4 µM
TGI [52]: 56.8 µM
GI50 [53]: 5.56 µM
TGI [53]: 20.1 µM
GI50 [54]: 2540 nM
TGI [54]: 12.8 µM
GI50 [55]: 7.07 µM
TGI [55]: 23.7 µM
GI50 [56]: 5.62 µM
TGI [56]: 18.4 µM
GI50 [57]: 4.07 µM
TGI [57]: 18.1 µM
GI50 [58]: 4.2 µM
TGI [58]: 17.1 µM
GI50 [59]: 4.05 µM
TGI [59]: 19.6 µM
